“Also recorded” adds a separate entry of the source.
Columns and labels:
[1] = biological target: T1, RORγt Cys320Ala mutant (Homo sapiens, UniProt P51449, C320A); assay: Ligation to RORγt Cys320Ala mutant, Q-TOF MS; type: binding
T1 sequence (P51449 265-507 C320A): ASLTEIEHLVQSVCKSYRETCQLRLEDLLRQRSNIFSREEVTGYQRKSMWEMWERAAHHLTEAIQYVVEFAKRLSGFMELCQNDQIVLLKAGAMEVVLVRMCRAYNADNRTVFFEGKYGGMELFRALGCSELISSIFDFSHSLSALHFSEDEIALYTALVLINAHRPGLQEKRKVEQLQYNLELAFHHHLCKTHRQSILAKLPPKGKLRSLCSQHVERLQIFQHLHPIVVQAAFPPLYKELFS

[2] = biological target: T2, ligated RORγt (covalent orthosteric probe at Cys320) (Homo sapiens, UniProt P51449); type: biochemical
T2 sequence (P51449 265-518): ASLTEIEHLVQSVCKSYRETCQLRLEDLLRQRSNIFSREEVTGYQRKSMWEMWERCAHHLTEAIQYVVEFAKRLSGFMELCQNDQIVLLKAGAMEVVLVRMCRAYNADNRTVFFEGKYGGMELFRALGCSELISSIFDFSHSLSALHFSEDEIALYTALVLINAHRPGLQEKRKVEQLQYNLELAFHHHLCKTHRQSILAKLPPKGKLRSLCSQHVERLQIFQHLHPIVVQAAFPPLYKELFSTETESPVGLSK

[3] = biological target: T3, RORγt LBD (Homo sapiens, UniProt P51449); assay: TR-FRET coactivator recruitment assay, dose-response of covalent probes; type: biochemical; conditions: TR-FRET dose-response curve plateau
T3 sequence (P51449 265-518): T2 sequence (P51449 265-518)

[4] = biological target: T4, PPARγ (Homo sapiens, UniProt P37231); assay: Ligation; type: binding
T4 sequence (P37231 1-505): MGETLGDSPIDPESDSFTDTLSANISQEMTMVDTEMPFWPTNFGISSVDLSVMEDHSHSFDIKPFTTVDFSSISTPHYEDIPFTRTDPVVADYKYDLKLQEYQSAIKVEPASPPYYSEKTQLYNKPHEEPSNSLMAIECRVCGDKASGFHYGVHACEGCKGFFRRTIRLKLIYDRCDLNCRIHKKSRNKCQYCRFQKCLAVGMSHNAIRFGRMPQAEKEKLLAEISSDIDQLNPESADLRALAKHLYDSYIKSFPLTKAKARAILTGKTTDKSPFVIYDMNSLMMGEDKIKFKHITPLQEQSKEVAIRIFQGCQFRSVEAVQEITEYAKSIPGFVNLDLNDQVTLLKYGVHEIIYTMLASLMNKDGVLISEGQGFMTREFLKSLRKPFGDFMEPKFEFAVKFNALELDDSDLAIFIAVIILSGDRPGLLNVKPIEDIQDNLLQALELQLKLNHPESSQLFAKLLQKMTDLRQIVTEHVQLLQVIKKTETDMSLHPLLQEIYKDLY

SMILES | occlusion of the orthosteric site by the ligated probe [2] | Profile (full/partial inverse agonistic character) [3] | further results
O=C(Nc1ccccc1)c1cc([N+](=O)[O-])ccc1Cl [Compound 1] | occlusion of the orthosteric binding site |  | Ligation to RORγt Cys320Ala mutant [1]: No ligation; Profile (full/partial inverse agonistic character) ([3]; listed as 1 GW9662): Full inv. ago.; Profile (full/partial inverse agonistic character) ([3]; listed as GW9662): full inverse agonist
CNC(=O)c1cc([N+](=O)[O-])ccc1Cl [Compound 2] |  |  | Ligation to PPARγ [4]: fully ligate
Cc1ccccc1NC(=O)c1cc([N+](=O)[O-])ccc1Cl [Compound 9] | Clear occlusion of the orthosteric site | partial inverse agonistic behavior; also recorded: Partial inv. ago | 
O=C(Nc1ccsc1)c1cc([N+](=O)[O-])ccc1Cl [Compound 11] |  | full inverse agonistic behavior; also recorded: Full inv. ago | 
